Measurements as given in patent US7596407B2, “Transdermal iontophoretic delivery of piperazinyl-2(3H)-benzoxazolone compounds” (priority 2004, dated 2009).
Values belong to the molecule of their own block, whether it stands above or below them.

Experiments:
[1] = Iontophoretic transport across human stratum corneum, three-chamber continuous flow-through diffusion cells; type: in vitro ADME; conditions: for iontophoretic flux (averages±s.e.m.): 4 g/l NaCl, citrate buffer pH 5.5, 0.5 mA/cm^2; for mean transport during the iontophoretic period: citrate buffer pH 5.5, 0.5 mA/cm^2, no NaCl added; for mean transport during the iontophoretic period (averages±s.e.m.): drug 35 mg/ml, pH 5.5, 0.5 mA/cm^2
Protocol: Human Stratum Corneum (HSC) was prepared from dermatomed healthy human skin. Within 24 hours after surgical removal of the human skin (abdominal or breast), residual subcutaneous fat was removed. To avoid interference with contaminating subcutaneous fat, the skin surface was carefully wiped with a tissue paper soaked in 70% ethanol. The skin was dermatomed to a thickness of about 300 μm using a Padgett Electro Dermatome Model B (Kansas City, USA). It was then incubated with the dermal side on Whatman paper soaked in a solution of 0.1% trypsin in PBS overnight at 4° C. and subsequently for 1 hour at 37° C. Then HSC was peeled off from the underlying epidermis and dermis. Remaining trypsin activity was blocked by bathing HSC in a 0.1% trypsin inhibitor solution in PBS, pH 7.4. HSC was washed several times in water and stored in a silica gel containing desiccator in a N2 environment to inhibit oxidation of lipids.
(§1) 7-(4-methyl-1-piperazinyl)-2(3H)-benzoxazolone as a HCl salt was dissolved in 10 mM sodium citrate solution. The pH was adjusted to pH 5.5 with 10 mM citric acid. 7-(4-benzyl-1-piperazinyl)-2(3H)-benzoxazolone as a mesylate salt was dissolved in 0.1 M potassium phosphate buffer. The pH was adjusted to pH 4.0 using o-phosphoric acid.
Iontophoresis experiments with 7-(4-methyl-1-piperazinyl)-2(3H)-benzoxazolone were performed using 9-channel computer controlled power supply to provide constant current (Electronics Department, Gorlaeus Laboratories, Leiden University, The Netherlands.) Alternatively the commercial available Power Supply PCT-MK1 of Moor Instruments, UK can be used. A silver plate electrode was used as an anode (e.g. Silver foil >99.99% pure, 1.0 mm thick (Aldrich article nr. 36,943-8), 5 cm long, 3 mm wide) and a silver/silver chloride electrode (prepared by repeatedly (2 or 3 times) dipping silver wire (>99.99% pure, Ø 1.0 mm (Aldrich art. Nr. 26,559-4), bended at the tip to produce a small projection (approx. 3 mm) at a right angle to the vertical electrode shaft in melted silver chloride powder (>99.999% pure, Aldrich art. Nr. 20,438-2) as a cathode. (Alternatively, the silver plate and silver/silver chloride electrodes can be prepared according to chapter 3.4.3. of Ajay K. Banga, Electrically Assisted Transdermal and Topical Drug Delivery, Taylor and Francis Group Ltd., London UK, 1998, ISBN 0-7484-0687-5. or can be purchased from a commercial supplier such as Iomed.)
All diffusion experiments were carried out at a constant current density of 0.5 mA/cm^2, using three chambers continuous flow through diffusion cells at room temperature. The diffusion set up consisted of a peristaltic pump, a fraction collector and 8 diffusion cells (for diffusion cell see FIG. 4). Stratum corneum was used for all diffusion studies. Human stratum corneum was hydrated for two hours in PBS pH 7.4 prior to mounting in the cells. Two pieces of stratum corneum were placed between the anodal and acceptor side, and between acceptor and cathodal side, with the apical side facing the anodal and cathodal compartments. Dialysis membrane (cut off 5,000 D) was used as supporting membrane for the stratum corneum. Parafilm rings were added for making a tight connection between the compartments. The temperature of the acceptor chamber was 37° C. The flow of PBS through the acceptor chamber was kept approximately constant for each cell during the experiment: 6-8 ml per hour. After six hours of passive diffusion, the current was switched on. The current was switched off at t=15 h. During a period of another 5 hours (post iontophoretic period) passive diffusion post iontophoresis was carried out. During iontophoresis, the current density was 0.5 mA/cm^2. The total resistance of the stratum corneum sheets was monitored during the experiment with two additional silver electrodes. A very low resistance is indicative of leakage of the stratum corneum in a cell. When this was observed, the diffusion data obtained were discarded. […]

[2] = HPLC-UV analysis of sample solutions for oxidation or degradation products; type: physicochemical; conditions: HPLC with UV detection, 215 nm
Protocol: 7-(4-methyl-1-piperazinyl)-2(3H)-benzoxazolone was analyzed using HPLC with UV detection (Waters Chromatography, Etten Leur, The Netherlands). A Chromsep SS column was used (250*3 mm L*i.d.) thermostatted at 30° C. The mobile phase consisted of acetonitrile/methanol/0.7 g/l ammonium acetate buffer at pH 5.6 ([…] v/v) and was used at 0.5 ml/min. The detection wavelength was 215 nm.

[3] = Solubility in donor buffer
[4] = Iontophoretic transport across hairless rat skin, vertical Franz diffusion cells; type: in vitro ADME; conditions: 30 mM NaCl; for change of iontophoretic flux with active substance concentration (FIG. 4): phosphate buffer pH 4.0
From the text: Hairless rats were euthanized by inhalation of carbon dioxide using an exposure chamber designed for such use half hour before start of experiment. The skin from the abdomen was carefully removed, making sure no muscle or fat was attached to the skin. The skin was then cut into small squares to fit the Franz diffusion set (Membrane Transport System, PermeGear, U.S.A) and placed in 0.1 M potassium phosphate buffer until mounted.
as §1
Iontophoresis experiments with 7-(4-benzyl-1-piperazinyl)-2(3H)-benzoxazolone were performed using vertical Franz diffusion cells (Membrane Transport System, PermeGear, U.S.A) hooked up to a Keithley 2400 source meter and the current monitored using a multimeter. The donor half was of the cell was exposed to room temperature (25° C.) while the receptor half was maintained at 37° C. Receptor compartment was continuously stirred. Freshly excised hairless rat skin was mounted on the vertical diffusion cells, after the receptor compartment had been filled with a suitable receptor media, which can maintain the sink condition. The receptor media had the same composition as the donor solution without the drug, so that the sink conditions could be maintained. The formulation was placed in the donor compartment. A silver wire was used as the anode in the donor and a silver/silver chloride wire was used as the cathode in the receptor. Current was applied for 3 hours using a constant current power source. However, sampling was continued till 24 hrs to see if enhanced delivery will stop on terminating current. Samples were taken at pre-determined time intervals from the receptor and analyzed by the HPLC as described below. Samples were replaced with fresh receptor medium and this was taken into consideration in the calculations.
7-(4-benzyl-1-piperazinyl)-2(3H)-benzoxazolone was analyzed using HPLC with UV detection (Waters Alliance system). A Chromsep SS column was used (150*3 mm L*i.d.) with particle size of 5 μm thermostatted at 40° C. The mobile phase was made using 1.54 g ammonium acetate in 460 ml of water (pH adjusted to 4.6 using acetic acid) and 540 ml of methanol and degassed. The flow rate was 0.5 ml/min. The detection wavelength was 243 nm. Injection volume was 10 μl.

SMILES: CN1CCN(c2cccc3[nH]c(=O)oc23)CC1.Cl [7-(4-methyl-1-piperazinyl)-2(3H)-benzoxazolone monohydrochloride]
- iontophoretic flux (averages±s.e.m.) ([1]; donor concentration 20 mg/ml): 409±47 μg/hr/cm^2
- mean transport during the iontophoretic period ([1]; donor concentration 20 mg/ml): 394±26 μg/hr/cm^2
- iontophoretic flux (averages±s.e.m.) ([1]; donor concentration 35 mg/ml): 467±74 μg/hr/cm^2
- mean transport during the iontophoretic period ([1]; donor concentration 35 mg/ml): 383±42 μg/hr/cm^2
- iontophoretic flux (averages±s.e.m.) ([1]; donor concentration 55 mg/ml): 580±87 μg/hr/cm^2
- mean transport during the iontophoretic period ([1]; donor concentration 55 mg/ml): 459±59 μg/hr/cm^2
- mean transport during the iontophoretic period ([1]; donor concentration 75 mg/ml): 418±31 μg/hr/cm^2
- mean transport during the iontophoretic period (averages±s.e.m.) ([1]; sodium chloride 0 mg/ml): 471±65 μg/hr/cm^2
- mean transport during the iontophoretic period (averages±s.e.m.) ([1]; sodium chloride 2 mg/ml): 377±37 μg/hr/cm^2
- mean transport during the iontophoretic period (averages±s.e.m.) ([1]; sodium chloride 4 mg/ml): 424±50 μg/hr/cm^2
- oxidation or degradation products in chromatograms of the sample solutions [2]: No oxidation or degradation products of the compound were observed
- share of the maximum solubility that a 35 mg/ml solution represents ([3]; 35 mg/ml, 10 mM citrate pH 5.5, 4 mg/ml NaCl): 80%
- share of the maximum solubility that a 55 mg/ml solution represents ([3]; 55 mg/ml in citrate buffer at pH 5.5 in the presence of 4 g/l NaCl): 85%
- share of the maximum solubility that a 75 mg/ml solution represents ([3]; 75 mg/ml in citrate buffer at pH 5.5): 85%
- dependence of solubility on NaCl concentration ([3]; citrate pH 5.5, NaCl 0-4 mg/ml): increases with reducing NaCl concentration

- permeation with iontophoresis as compared to passive delivery (FIG. 5) ([4]; current densities 0, 0.1, 0.3 and 0.5 mA): considerably enhances the permeation
- change of iontophoretic flux with active substance concentration (FIG. 4) ([4]; further increase to 10 mg/ml): no increase in iontophoretic flux
- change of iontophoretic flux with active substance concentration (FIG. 4) ([4]; increase from 1 mg/ml to 5 mg/ml): increase in iontophoretic flux
SMILES: CS(=O)(=O)O.O=c1[nH]c2cccc(N3CCN(Cc4ccccc4)CC3)c2o1 [7-(4-benzyl-1-piperazinyl)-2(3H)-benzoxazolone mesylate]
- relationship between flux and current density (FIG. 5) ([4]; 5 g/ml solution, current densities 0, 0.1, 0.3 and 0.5 mA): linear relationship between flux and current density
